Reference: patent publication US20090042289A1, “Preservation of Cells” (University of Wales, Cardiff, priority 2000, published 2009)

Tests used:
in vitro = conditions: rat
Source text: (§1) Data is expressed as a percentage of the number of viable cells (as determined by LDH activity) in the non-hydrolysed gelatin sandwich at each time point. Native Gel/cell slurry (-{acute over (◯)}-) wherein hepatocytes suspended in a gel of non-hydrolysed gelatin; Pre-adhered hepatocytes with Native gel blanket (-▪-) wherein hepatocytes allowed to adhere to the substratum before being blanketed by gel of non-hydrolysed gelatin; hydrolysed gelatin slurry (-x-) wherein hepatocytes suspended in a gel of non-hydrolysed gelatin hydrolysed at 95° C.; 75 bloom slurry (--) wherein hepatocytes suspended in a gel composed of 75 bloom gelatin (commercially available from Sigma); Pre-attached hepatocytes with Hydrolysed gel blanket (-◯-) wherein hepatocytes allowed to adhere to the substratum before being blanketed by a gel of hydrolysed gelatin.

Source text for hepatocytes: as §1

OCC(O)CO [glycerol]
viability at 7 days, 0.5 M (in vitro): 10%
cytotoxicity to hepatocytes during preservation (hepatocytes): cytotoxic
